Tests used:
[1] = test system: KP1081 (NDM-1, TEM-1, SHV-11, CMY-6, CTX-M-15); assay type: cell-based, Klebsiella pneumoniae; conditions: KP1081; alone
Text: (§1) The results are present in Table 6.
(§2) The results are present in Table 7.

[2] = test system: KP1087 (KPC-2, CTX-M-15, SHV-11, TEM-1); assay type: cell-based, Klebsiella pneumoniae; conditions: KP1087; alone
Text: as §1, §2

[3] = target: T1, KPC-2 (Klebsiella pneumoniae, UniProt Q9F663); experiment: Inhibition of purified class A carbapenemase, biapenem cleavage; assay type: biochemical; conditions: substrate biapenem 100 μM
T1 sequence (Q9F663 25-293, looked up, species assumed): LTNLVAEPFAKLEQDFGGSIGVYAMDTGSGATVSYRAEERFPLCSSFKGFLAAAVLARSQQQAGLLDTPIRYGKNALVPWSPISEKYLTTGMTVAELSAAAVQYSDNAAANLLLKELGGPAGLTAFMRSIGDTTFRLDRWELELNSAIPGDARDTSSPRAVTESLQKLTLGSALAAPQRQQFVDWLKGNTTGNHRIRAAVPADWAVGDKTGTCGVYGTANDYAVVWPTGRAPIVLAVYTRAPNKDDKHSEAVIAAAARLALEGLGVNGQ

[4] = target: CMY-2 (Klebsiella pneumoniae, UniProt Q48434); experiment: Inhibition of purified beta-lactamase, nitrocefin cleavage; assay type: biochemical; conditions: nitrocefin; read-out: Ki (CMY-2, NCF)
Sequence of CMY-2 (Q48434 21-381, species assumed): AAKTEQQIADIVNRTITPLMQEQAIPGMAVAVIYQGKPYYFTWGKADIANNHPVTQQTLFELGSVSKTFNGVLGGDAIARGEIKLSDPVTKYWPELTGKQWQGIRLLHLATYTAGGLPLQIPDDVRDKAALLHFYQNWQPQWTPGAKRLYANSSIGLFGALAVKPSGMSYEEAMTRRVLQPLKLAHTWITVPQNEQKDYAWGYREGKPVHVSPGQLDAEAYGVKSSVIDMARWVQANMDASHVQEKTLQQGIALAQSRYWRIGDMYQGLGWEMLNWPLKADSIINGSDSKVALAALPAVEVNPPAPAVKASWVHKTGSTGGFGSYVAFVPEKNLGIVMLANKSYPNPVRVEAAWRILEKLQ
Method: (§3) Purified enzymes were mixed with various concentrations of inhibitors in reaction buffer and incubated for 10 min at room temperature. Nitrocefin was added and substrate cleavage profiles were recorded at 490 nm every 10 sec for 10 min.

[5] = target: CTX-M-14 (Escherichia coli, UniProt Q9L5C7); experiment: as above; assay type: biochemical
Sequence of CTX-M-14 (Q9L5C7 entry or part of it): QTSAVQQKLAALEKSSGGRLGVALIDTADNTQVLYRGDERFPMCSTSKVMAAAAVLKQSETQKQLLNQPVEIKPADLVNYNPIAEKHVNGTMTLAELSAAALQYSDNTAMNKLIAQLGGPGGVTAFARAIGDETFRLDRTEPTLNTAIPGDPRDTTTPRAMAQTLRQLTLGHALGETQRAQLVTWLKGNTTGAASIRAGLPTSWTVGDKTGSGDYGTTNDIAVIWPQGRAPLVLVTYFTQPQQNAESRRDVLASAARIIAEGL
Method: as §3

[6] = target: T1, KPC-2; experiment: as above; assay type: biochemical; conditions: read-out: Ki (KPC-2, NCF)
Method: as §3

[7] = target: OXA-48 (Klebsiella pneumoniae, UniProt Q6XEC0); experiment: as above; assay type: biochemical; conditions: read-out: Ki (OXA-48, NCF)
Sequence of OXA-48 (Q6XEC0 23-265, looked up): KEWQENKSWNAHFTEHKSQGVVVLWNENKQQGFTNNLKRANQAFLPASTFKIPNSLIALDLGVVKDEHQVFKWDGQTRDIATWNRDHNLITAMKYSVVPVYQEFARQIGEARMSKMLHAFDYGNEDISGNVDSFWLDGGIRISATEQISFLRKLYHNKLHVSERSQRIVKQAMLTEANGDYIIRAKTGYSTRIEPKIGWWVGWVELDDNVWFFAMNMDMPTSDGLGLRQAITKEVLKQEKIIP
Method: as §3

[8] = target: SHV-12 (Klebsiella pneumoniae, UniProt P0AD64, E235K/G234S/L31Q); experiment: as above; assay type: biochemical; conditions: read-out: Ki (SHV-12, NCF)
Sequence of SHV-12 (P0AD64 22-286 L31Q/G234S/E235K): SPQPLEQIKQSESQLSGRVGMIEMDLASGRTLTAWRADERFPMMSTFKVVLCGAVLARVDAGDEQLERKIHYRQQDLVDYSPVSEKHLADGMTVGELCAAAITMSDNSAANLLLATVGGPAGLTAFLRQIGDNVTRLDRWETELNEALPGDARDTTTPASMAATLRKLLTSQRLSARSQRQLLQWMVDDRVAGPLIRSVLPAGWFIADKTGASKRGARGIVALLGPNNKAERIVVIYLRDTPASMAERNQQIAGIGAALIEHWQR
Method: as §3

[9] = target: P99/AmpC of ECL (Enterobacter cloacae, UniProt P05364); experiment: biochemical; conditions: nitrocefin; read-out: Ki (P99/AmpC of ECL, NCF)
Sequence of P99/AmpC of ECL (P05364 21-381): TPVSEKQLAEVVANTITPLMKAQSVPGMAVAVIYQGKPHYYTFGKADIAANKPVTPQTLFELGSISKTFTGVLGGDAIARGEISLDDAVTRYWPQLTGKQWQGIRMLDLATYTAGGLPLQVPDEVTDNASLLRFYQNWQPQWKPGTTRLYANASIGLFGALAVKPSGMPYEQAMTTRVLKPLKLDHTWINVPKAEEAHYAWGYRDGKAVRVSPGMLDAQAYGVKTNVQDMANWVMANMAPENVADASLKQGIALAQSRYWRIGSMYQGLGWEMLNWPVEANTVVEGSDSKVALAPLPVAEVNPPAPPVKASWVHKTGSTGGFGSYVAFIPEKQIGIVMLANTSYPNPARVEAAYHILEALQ
Method: as §3

[10] = target: NDM-1 (Klebsiella pneumoniae, UniProt C7C422); experiment: biochemical; conditions: substrate imipenem 100 μM
Sequence of NDM-1 (C7C422 29-270, looked up, species assumed): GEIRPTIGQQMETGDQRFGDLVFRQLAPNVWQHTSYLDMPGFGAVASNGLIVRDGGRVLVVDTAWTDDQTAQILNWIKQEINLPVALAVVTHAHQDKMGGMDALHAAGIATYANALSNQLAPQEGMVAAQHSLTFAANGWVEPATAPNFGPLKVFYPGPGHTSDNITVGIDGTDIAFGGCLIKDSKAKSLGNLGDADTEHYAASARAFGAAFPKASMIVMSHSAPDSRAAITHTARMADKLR

SMILES	Carbapenem MIC alone [1]	Carbapenem MIC alone [2]	Ki [3] [nM]	Ki [4] [nM]	Ki [5] [nM]	Ki [6] [nM]	Ki [7] [nM]	Ki [8] [nM]	Ki [9] [nM]	Ki [10] [nM]
C[C@@H](O)[C@H]1C(=O)N2C(C(=O)[O-])=C(SC3Cn4cnc[n+]4C3)[C@H](C)[C@H]12 (some centres unmarked) [Biapenem]	Z (MIC of greater than 10 μg/mL)	Z (MIC of greater than 10 μg/mL)	–	–	–	–	–	–	–	–
O=C(O)c1cccc2c1OB(O)[C@@H](Sc1nnc[nH]1)C2 [Compound 2, (R)-3-(4H-1,2,4-triazol-3-ylthio)-2-hydroxy-3,4-dihydro-2H-benzo[e][1,2]oxaborinine-8-carboxylic acid]	–	–	10 to 100	100 to 1000	100 to 1000	100 to 1000	< 100	< 100	100 to 1000	–
NC(=O)CS[C@H]1Cc2cccc(C(=O)O)c2OB1O [Compound 3, (R)-3-(2-amino-2-oxoethylthio)-2-hydroxy-3,4-dihydro-2H-benzo[e][1,2]oxaborinine-8-carboxylic acid]	–	–	10 to 100	< 100	< 100	< 100	< 100	100 to 1000	< 100	–
CC(=O)Nc1nnc(S[C@H]2Cc3cccc(C(=O)O)c3OB2O)s1 [Compound 7, (R)-3-(5-acetamido-1,3,4-thiadiazol-2-ylthio)-2-hydroxy-3,4-dihydro-2H-benzo[e][1,2]oxaborinine-8-carboxylic acid]	–	–	–	< 100	< 100	–	< 100	< 100	< 100	–
NC(=O)CCS[C@H]1Cc2cccc(C(=O)O)c2OB1O [Compound 9, (R)-3-(3-amino-3-oxopropylthio)-2-hydroxy-3,4-dihydro-2H-benzo[e][1,2]oxaborinine-8-carboxylic acid]	–	–	–	< 100	< 100	< 100	< 100	100 to 1000	< 100	–
Cn1cnnc1S[C@H]1Cc2cccc(C(=O)O)c2OB1O [Compound 15, (R)-2-hydroxy-3-(4-methyl-4H-1,2,4-triazol-3-ylthio)-3,4-dihydro-2H-benzo[e][1,2]oxaborinine-8-carboxylic acid]	–	–	10 to 100	< 100	< 100	100 to 1000	< 100	< 100	< 100	< 10
CS[C@H]1Cc2cccc(C(=O)O)c2OB1O [Compound 16, (R)-2-hydroxy-3-(methylthio)-3,4-dihydro-2H-benzo[e][1,2]oxaborinine-8-carboxylic acid]	–	–	10 to 100	–	< 100	< 100	< 100	100 to 1000	< 100	> 100
CO[C@H]1Cc2ccc(F)c(C(=O)O)c2OB1O [Compound 19, (R)-7-fluoro-2-hydroxy-3-methoxy-3,4-dihydro-2H-benzo[e][1,2]oxaborinine-8-carboxylic acid]	–	–	–	–	< 100	< 100	< 100	< 100	< 100	> 100
NC(=O)CC1Cc2cccc(C(=O)O)c2OB1O (centres unmarked) [Compound 22, 3-(2-amino-2-oxoethyl)-2-hydroxy-3,4-dihydro-2H-benzo[e][1,2]oxaborinine-8-carboxylic acid]	–	–	–	< 100	< 100	< 100	< 100	< 100	< 100	–
C[C@@H](O)[C@H]1C(=O)N2C(C(=O)O)=C(S[C@@H]3CN[C@H](CNS(N)(=O)=O)C3)[C@H](C)[C@H]12 [Doripenem]	Z (MIC of greater than 10 μg/mL)	Z (MIC of greater than 10 μg/mL)	–	–	–	–	–	–	–	–

Reference: patent US9132140B2, “Boronic acid derivatives and therapeutic uses thereof” (Rempex Pharmaceuticals, Inc., priority 2013, dated 2015)
